Measured values taken from the supplement of paper PMC10307832.

Legend:
Test in all cases: relative viability (nuclei count vs DMSO), 5 days (fraction); higher = more cells survive
[1] = compound: C[C@@]1(C(=O)Nc2ccc(F)nc2)CCCN1c1nc(Nc2cc(C3CC3)n[nH]2)c2cccn2n1 + Nc1ncn([C@H]2C[C@H](O)[C@@H](CO)O2)c(=O)n1 [Decitabine] (partner 2 µM)
Procedure, shortened: (§1)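 Five library-drug doses in √10 steps were combined with a fixed anchor-drug dose, or a single drug was given alone, by pin tool to lung cancer cell lines in 1536-well plates the day after seeding. Nuclei were stained and counted after 5 days. Relative viability is the nuclei count in treated wells over that in vehicle wells, taken as the median of duplicate plates.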

[2] = compound: C[C@@]1(C(=O)Nc2ccc(F)nc2)CCCN1c1nc(Nc2cc(C3CC3)n[nH]2)c2cccn2n1 + C[C@@H](Oc1cc(-c2cnn(C3CCNCC3)c2)cnc1N)c1c(Cl)ccc(F)c1Cl [Crizotinib] (partner 1 µM)
Procedure, shortened: as §1

Motesanib + Palbociclib = compound: CC1(C)CNc2cc(NC(=O)c3cccnc3NCc3ccncc3)ccc21 [Motesanib] + CC(=O)c1c(C)c2cnc(Nc3ccc(N4CCNCC4)cn3)nc2n(C2CCCC2)c1=O [Palbociclib] (partner 0.5 µM)
Procedure, shortened: as §1

Motesanib + AZD7762 = compound: CC1(C)CNc2cc(NC(=O)c3cccnc3NCc3ccncc3)ccc21 [Motesanib] + NC(=O)Nc1cc(-c2cccc(F)c2)sc1C(=O)N[C@H]1CCCNC1 [AZD7762] (partner 0.2 µM)
Procedure, shortened: as §1

Cell Line | relative viability ([1]; first compound 0.04 µM) | relative viability ([1]; first compound 0.1265 µM) | relative viability ([1]; first compound 0.4 µM) | relative viability ([1]; first compound 1.265 µM) | relative viability ([2]; first compound 0.04 µM) | relative viability ([2]; first compound 0.1265 µM) | relative viability ([2]; first compound 0.4 µM) | relative viability ([2]; first compound 1.265 µM) | relative viability (Motesanib + Palbociclib; first compound 0.1 µM) | relative viability (Motesanib + Palbociclib; first compound 0.3162 µM) | relative viability (Motesanib + Palbociclib; first compound 1 µM) | relative viability (Motesanib + AZD7762; first compound 0.1 µM) | relative viability (Motesanib + AZD7762; first compound 0.3162 µM) | relative viability (Motesanib + AZD7762; first compound 1 µM) | relative viability (Motesanib + Palbociclib; first compound 0.01 µM) | relative viability (Motesanib + Palbociclib; first compound 0.03162 µM) | relative viability (Motesanib + AZD7762; first compound 0.01 µM) | relative viability (Motesanib + AZD7762; first compound 0.03162 µM)
NCI-H2087 | 0.237 | 0.191 | 0.258 | 0.16 | 0.88 | 1.06 | 0.699 | 0.613 | 0.26 | 0.232 | 0.26 | 1.41 | 1.13 | 1.55 |  |  |  | 
NCI-H1437 | 0.553 | 0.517 | 0.521 | 0.432 | 0.932 | 0.714 | 0.561 | 0.762 | 0.295 | 0.302 | 0.278 | 1.15 | 1.11 | 1.11 | 0.271 | 0.266 | 1.05 | 1.08
NCI-H1792 | 0.401 | 0.235 | 0.249 | 0.304 | 0.896 | 0.677 | 0.62 | 0.473 | 0.653 | 0.675 | 0.667 | 0.92 | 0.635 | 0.71 |  | 0.583 | 0.621 | 0.706
ChaGo-K-1 | 0.511 | 0.52 | 0.499 | 0.503 | 0.989 | 0.644 | 1.01 | 0.791 | 0.976 | 0.856 | 0.908 | 0.804 | 0.836 | 0.795 | 0.899 | 0.881 | 0.89 | 0.812
NCI-H650 | 0.291 | 0.311 | 0.305 | 0.29 | 0.764 | 0.449 | 0.489 | 0.47 | 0.356 | 0.319 | 0.341 | 1.07 | 0.965 | 1 | 0.32 | 0.3 | 1.05 | 1.09
LK-2 |  | 0.171 | 0.18 | 0.162 | 0.208 | 0.335 | 0.224 | 0.159 | 0.537 | 0.667 | 0.708 | 0.281 | 0.497 | 0.371 | 0.784 | 0.659 | 0.364 | 0.337
201T | 0.813 | 0.714 | 0.671 | 0.862 | 0.993 | 0.943 | 0.933 | 0.973 | 0.358 | 0.371 | 0.373 | 0.734 | 0.637 | 0.672 | 0.34 | 0.343 | 0.592 | 0.617
HCC-44 | 0.957 | 0.949 | 0.811 | 0.84 | 0.732 | 0.696 | 0.513 | 0.597 | 1.02 | 0.972 | 0.942 | 1.13 | 1.08 | 1.02 | 0.945 | 0.944 | 0.93 | 1.05
H3255 | 0.587 | 0.622 | 0.521 | 0.65 | 0.865 | 0.979 | 0.793 | 0.924 | 0.322 | 0.348 | 0.363 | 0.884 | 0.816 | 0.909 | 0.308 | 0.326 | 0.846 | 0.986
NCI-H647 | 0.504 | 0.312 | 0.368 | 0.421 | 1.07 | 1.03 | 0.841 | 0.447 | 0.395 | 0.423 | 0.466 | 0.441 | 0.621 | 0.525 | 0.428 | 0.262 | 0.493 | 0.464
NCI-H23 | 0.274 | 0.253 | 0.258 | 0.271 | 0.49 | 0.292 | 0.2 | 0.35 | 0.456 | 0.604 | 0.467 | 0.186 | 0.195 | 0.244 | 0.482 | 0.491 | 0.194 | 0.227
NCI-H1944 | 0.372 | 0.377 | 0.376 | 0.386 | 0.981 | 1.03 | 0.875 | 1.17 | 0.334 | 0.302 | 0.326 | 0.532 | 0.541 | 0.472 | 0.352 | 0.328 | 0.425 | 0.476
NCI-H460 | 0.506 | 0.446 | 0.413 | 0.346 | 0.985 | 0.699 | 0.639 | 0.331 | 0.142 | 0.197 | 0.137 | 0.772 | 0.653 | 0.611 | 0.278 | 0.162 | 0.56 | 0.633
EKVX | 0.29 | 0.246 | 0.357 | 0.288 | 0.929 | 0.862 | 0.612 | 0.679 | 0.378 | 0.36 | 0.398 | 0.684 | 0.68 | 0.665 | 0.415 | 0.347 | 0.716 | 0.653
NCI-H358 | 0.212 | 0.146 | 0.165 | 0.116 | 0.474 | 0.394 | 0.241 | 0.216 | 0.132 | 0.161 | 0.13 | 0.481 | 0.661 | 0.55 | 0.142 | 0.133 | 0.434 | 0.626
EPLC-272H | 0.348 | 0.306 | 0.279 | 0.336 | 0.977 | 0.857 | 0.676 | 1.16 | 0.344 | 0.36 | 0.381 | 0.151 | 0.21 | 0.267 | 0.284 | 0.3 | 0.145 | 0.268
NCI-H2126 | 0.539 | 0.389 | 0.36 | 0.471 | 0.923 | 0.845 | 0.672 | 0.98 | 0.341 | 0.347 | 0.412 | 0.999 | 1.03 | 1.09 | 0.333 | 0.35 | 1.04 | 1.05
